Source: patent US7858637B2, “Administration of TLR7 ligands and prodrugs thereof for treatment of infection by hepatitis C virus” (priority 2003, dated 2010)
Counter-ions that a name gives are not always drawn. Like-named read-outs stand apart in the source and are kept apart here. Values belong to the molecule of their own block, whether it stands above or below them.

Experiments:
[1] = tested on: HCV replicon; experiment: HCV replicon-based viral bioassay with supernatants of compound-treated PBMC; type: cell-based, hepatitis C virus; conditions: PBMC exposed 8 hours to 10 μM, donor FL75287
Method: A quantitative assay was developed which is based on measuring the activity of the luciferase reporter gene that was integrated into an HCV replicon. By using this system, interferons from TLR7 agonist-treated PBMCs were measured and their inhibitory activity was assessed using the luciferase reporter replicon.
Human PBMCs isolated from a healthy donor were placed in replicate cell culture wells (5×10^6 cells per well). The PBMCs are incubated in the absence of test compounds at 37° C. in a humidified atmosphere containing 5% CO2 for 24 hours to allow stabilization to the culture conditions, and then the TLR7 ligand or a drug free control is added to replicate wells containing PBMCs from the same donor. The concentrations of TLR7 ligand may be varied to suit the particular experiment, and the PBMC cultures are then incubated at 37° C. in a humidified atmosphere containing 5% CO2 for eight hours. Samples of cell culture supernatant are taken at the eight hour time point (or twenty four hour time point in case of Loxoribine and its prodrugs) from TLR7 ligand treated and control wells and are assayed for interferon-alpha production by ELISA. Supernatants from compound-treated cells and a no-drug control were diluted at 1:10, 1:100, and 1:1000 in RPMI media and applied to a 96-well plate of Huh7 hepatocyte cells containing the luciferase reporter replicon. Cells were incubated for 48 hours at 37° C. in a tissue culture incubator.
After the incubation period, the 96-well plates are washed 2× with PBS and are lysed with passive lysis buffer (Promega). Plates are shaken at room temperature for 20 minutes and standard luciferase assay reagent (Promega) is added to each well by injection and the plate is read on an Lmax luminometer (Molecular Devices).
A supernatant collected from PBMC cells non-exposed to the compound and diluted as specified in the first column was used as a control (“Blank supernatant”). The PBMC cells were isolated from a single blood donor as specified.

[2] = tested on: human peripheral blood mononuclear cells (PBMC); experiment: PBMC assay of interferon alpha release (masking); type: cell-based; conditions: Homo sapiens, PBMC, read-out: Amount of INFa relative to that induced by isatoribine at 100 μM
Method: A typical experiment would use human peripheral blood mononuclear cells (PBMC) isolated from a healthy donor and placed in replicate cell culture wells; typically, 2×10^6 to 5×10^6 cells are placed in each well. The PBMC are incubated in the absence of test compounds at 37° C. in a humidified atmosphere containing 5% CO2 for 24 hours to allow stabilization to the culture conditions, and then 100 micromolar isatoribine, the TLR7 ligand and a corresponding TLR7 ligand prodrug are added to separate wells containing PBMC from the same donor; untreated controls are included. The concentrations of TLR7 ligand and TLR7 ligand prodrug may be varied to suit the particular experiment, and the PBMC cultures are then incubated at 37° C. in a humidified atmosphere containing 5% CO2 for a period of time ranging from two hours to 48 hours. Samples of cell culture supernate media are taken during the incubation. These are assayed for cytokine production by ELISA. Additionally the amount of TLR7 ligand and TLR7 ligand prodrug remaining at the end of the incubation may be assayed by LC-MS. Cytokine production is calculated relative to production in the isatoribine control, following subtraction of the cytokine production in untreated controls.
Thus, if the TLR7 ligand generates more interferon alpha (a conveniently measured cytokine) than does the corresponding TLR7 ligand prodrug after a similar duration of exposure and concentration, the TLR7 ligand prodrug may be deemed a “masked” TLR7 ligand prodrug.

[3] = tested on: HCV; conditions: treatment of HCV, Pockros et al., Gastroenterology 2003; cited from earlier work

SMILES: CCOCc1nc2c(N)nc3ccccc3c2n1CC(C)(C)O [Compound 38, 1-(4-amino-2-ethoxymethyl-imidazo[4,5-c]quinolin-1-yl)-2-methyl-propan-2-ol]
HCV replicon inhibition ([1]; Table 6 No. 1, supernatant dilution 1:10): 100% | HCV replicon inhibition ([1]; Table 6 No. 1, supernatant dilution 1:100): 98% | HCV replicon inhibition ([1]; Table 6 No. 1, supernatant dilution 1:1000): 21% | HCV replicon inhibition ([1]; Table 6 No. 2, supernatant dilution 1:10): 100% | HCV replicon inhibition ([1]; Table 6 No. 2, supernatant dilution 1:100): 88% | HCV replicon inhibition ([1]; Table 6 No. 2, supernatant dilution 1:1000): 6% | Emax at 100 µM ([2]; 24 h): 9% | anti-HCV effect at tolerated oral doses [3]: failed to show anti-HCV effect

SMILES: CC(=O)O[C@@H]1[C@H](OC(C)=O)[C@@H](CO)O[C@H]1n1c(=O)sc2cnc(N)nc21 [Compound 93, 5-Amino-3-(2′,3′-di-O-acetyl-β-D-ribofuranosyl)-3H-thiazolo[4,5-d]pyrimidin-2-one]
Emax at 100 µM ([2]; Table 9, 100 μM, 24 hours exposure, same blood donor): 0% | melting point: 109 to 111 °C

Continued, values first:

melting point: 198 to 199 °C
SMILES: CC(=O)OC[C@H]1O[C@@H](n2c(=O)sc3c(=O)[nH]c(N)nc32)[C@H](OC(C)=O)[C@@H]1OC(C)=O

melting point: 220 °C (dec.)
SMILES: Nc1ncc2sc(=O)n([C@@H]3O[C@H](CO)[C@@H](O)[C@H]3O)c2n1

melting point: 166 to 168 °C (dec.)
SMILES: CC(C)[C@H](N)C(=O)OC[C@H]1O[C@@H](n2c(=O)sc3c(=O)[nH]c(N)nc32)[C@H](O)[C@@H]1O (as salt: hydrochloride) [Compound 24, 5-Amino-3-(5′-O-L-valinyl-β-D-ribofuranosyl)thiazolo[4,5-d]pyrimidine-2,7-dione Dihydrochloride]
